Structures can show the parent of a compound that is named as a salt.
Target: T1, human B1 (Homo sapiens, UniProt P46663)
T1 construct: host or cells: CHO-K1
T1 sequence (P46663 1-353): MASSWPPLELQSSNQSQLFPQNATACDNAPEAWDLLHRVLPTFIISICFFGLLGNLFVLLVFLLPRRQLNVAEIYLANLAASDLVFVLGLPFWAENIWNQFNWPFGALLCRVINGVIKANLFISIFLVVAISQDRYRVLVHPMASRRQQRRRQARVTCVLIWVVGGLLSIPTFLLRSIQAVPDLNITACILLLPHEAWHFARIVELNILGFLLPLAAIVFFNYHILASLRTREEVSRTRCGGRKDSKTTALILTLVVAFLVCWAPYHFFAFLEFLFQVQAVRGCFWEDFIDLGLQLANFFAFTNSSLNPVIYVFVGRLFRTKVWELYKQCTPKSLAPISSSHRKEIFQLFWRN
Test: Calcium flux assay for Bradykinin B1 antagonist, CHO-K1 cell line expressing human B1
Format: cell-based
Conditions: CHO-K1 cells expressing human B1, agonist Lys-(Des-Arg)-Bradykinin, read-out: Potency (IC50 value against human B1)
Experimental: Calcium Flux Assay for Bradykinin B1 Antagonist
The potency to inhibit the Bradykinin B1 receptors was determined for the compounds of this invention in a cell-based fluorescent calcium-mobilization assay. The assay measures the ability of test compounds to inhibit Bradykinin B1 receptor agonist-induced increase of intracellular free Ca^2+ in cell lines expressing B1.
The change of the intracellular Ca^2+ concentration is monitored with a specifically designed fluorescent plate reader (FlexStation, Molecular Devices).
CHO-K1 cell line expressing human B1 was purchased from Euroscreen (Gosselies, Belgium, with reference name hBl-D1). CHO-K1 cell lines expressing rat B1 or mouse B1 were established in the following way: the full-length receptor-coding cDNA clones were obtained by PCR performed on rat or mouse brain cDNAs. The respective cDNAs were cloned into an expression vector under the control of a CMV promotor. The resultant plasmids were introduced into CHO-K1 cells with liposome technology (FuGENE; Roche Diagnostics, Basel), according to the standard protocols described by the manufacturer. Cell lines expressing a Bradykinin receptor were selected in the culture medium containing 400 μg/ml G418 (Sigma). From selected cell populations, monoclonal cell lines were isolated by single cell cloning. The expression of Bradykinin receptors was confirmed by immunofluorescence staining of the cells, as well as by calcium flux assay.
Human B1-expressing cells were grown in Nutrient Mixture Ham's F12 (Sigma) containing 10% Foetal bovine serum (Sigma) and 400 μg/ml G418 (Sigma), 5 μg/ml puromycim (Sigma); Rat B1 and mouse B1-expressing cells were grown in DMEM/F12 medium (Sigma) containing 10% Foetal bovine serum (Sigma) and 400 μg/ml G418 (Sigma).
For the calcium flux assay, 80% confluent cells were detached from the culture vessels with Versene (Gibco; for human B1 cell-line) or with 1× trypsin-EDTA solution (Sigma; for rodent B1 cell-line), and seeded into 384-well plates (Cell binding Surface; Corning, N.Y.; #3683) at a density of 15,000 cells per well for human B1 or at a density of 20,000 cells per well for rodent B1. Cells were seeded in a volume of 50 μl in medium without antibiotics and incubated overnight in a humidified atmosphere with 5% CO2 at 37° C. The following day, the medium was replaced with 20 μl of 5 μM Fluo-4AM dye (Molecular Probes) in assay buffer (2.5 mM probenicid, 1 mg/ml pluronic acid, 0.1% BSA, 135 mM NaCl, 5 mM KCl, 1.8 mM CaCl, 1 mM MgCl2, 10 mM HEPES, 5.6 mM glucose, 0.05% gelatine, pH 7.4). The calcium indicator loaded cells were incubated at 37° C. for 2 hrs. Extracellular dye was then removed and each well was filled with 45 μl of assay buffer. Cell plates were kept in dark until used. Test compounds were assayed at 8 concentrations in triplicate. Serial 10-fold dilutions in 100% DMSO were made at a 100-times higher concentration than the final concentration, and then diluted 1:10 in assay buffer. 5 μl of each diluted compound was added to the well of cell plates (yielding final concentration with 1% DMSO), and incubated for 30 min at 25° C. before the addition of B1 agonist on the FlexStation.
The addition of agonist 20 μl per well to the assay plate was carried out on the FlexStation while continuously monitoring Ca^2+-dependent fluorescence at 538 nm. The integrated values, normalized with the background fluorescence, were plotted against the logarithm of the antagonist concentrations.

| SMILES | IC50 [nM] |
| --- | --- |
| COc1cc(C)c(S(=O)(=O)N(C)Cc2nnc(C(=O)N3CCN(CC4CCN(C)CC4)CC3)o2)c(C)c1 [Ex 258, 4-Methoxy-N,2,6-trimethyl-N-{[5-({4-[(1-methylpiperidin-4-yl)methyl]piperazin-1-yl}carbonyl)-1,3,4-oxadiazol-2-yl]methyl}benzenesulfonamide] | < 10 |
| COc1cc(C)c(S(=O)(=O)N(Cc2nc(C(=O)N3CCN(Cc4ccncc4F)CC3)co2)C2CC2)c(C)c1 [Ex 232, N-Cyclopropyl-N-{[4-({4-[(3-fluoropyridin-4-yl)methyl]piperazin-1-yl}carbonyl)-1,3-oxazol-2-yl]methyl}-4-methoxy-2,6-dimethylbenzenesulfonamide trifluoroacetate] | 100 to 1000 |
| COc1cc(C)c(S(=O)(=O)N(C)Cc2cc(C(=O)NCc3ccc(CNCc4ccncc4)cc3)co2)c(C)c1 [Ex 96, 5-({[(4-Methoxy-2,6-dimethylphenyl)sulfonyl](methyl)amino}methyl)-N-(4-{[(pyridin-4-ylmethyl)amino]methyl}benzyl)furan-3-carboxamide trifluoroacetate] | 100 to 1000 |
| COc1cc(C)c(S(=O)(=O)N(Cc2nc(C(=O)N3CC4CCNCC4C3)co2)C2CC2)c(C)c1 (centres unmarked) [Ex 205, N-Cyclopropyl-4-methoxy-2,6-dimethyl-N-{[4-(octahydro-2H-pyrrolo[3,4-c]pyridin-2-ylcarbonyl)-1,3-oxazol-2-yl]methyl}benzenesulfonamide] | 100 to 1000 |
| COc1cc(C)c(S(=O)(=O)N(C)Cc2nc(C(=O)N(C)Cc3cccc(CN4CCCC4)c3)co2)c(C)c1 [Ex 73, 2-({[(4-Methoxy-2,6-dimethylphenyl)sulfonyl](methyl)amino}methyl)-N-methyl-N-[3-(pyrrolidin-1-ylmethyl)benzyl]-1,3-oxazole-4-carboxamide] | < 10 |
| COc1cc(C)c(S(=O)(=O)N(Cc2nnc(C(=O)N3CCN(CCCN4CCCC4)CC3)s2)C2CC2)c(C)c1 [Ex 336, N-Cyclopropyl-4-methoxy-2,6-dimethyl-N-[(5-{[4-(3-pyrrolidin-1-ylpropyl)piperazin-1-yl]carbonyl}-1,3,4-thiadiazol-2-yl)methyl]benzenesulfonamide] | 10 to 100 |
| COc1cc(C)c(S(=O)(=O)N(C)Cc2nnc(C(=O)N3CCN(Cc4ccc(OC)nc4)CC3)o2)c(C)c1 [Ex 260, 4-Methoxy-N-{[5-({4-[(6-methoxypyridin-3-yl)methyl]piperazin-1-yl}carbonyl)-1,3,4-oxadiazol-2-yl]methyl}-N,2,6-trimethylbenzenesulfonamide trifluoroacetate] | 10 to 100 |
| COc1cc(C)c(S(=O)(=O)N(Cc2nnc(C(=O)N3CCN(CC4CCN(C)CC4)CC3)s2)C2CC2)c(C)c1 [Ex 335, N-Cyclopropyl-4-methoxy-2,6-dimethyl-N-{[5-({4-[(1-methylpiperidin-4-yl)methyl]piperazin-1-yl}carbonyl)-1,3,4-thiadiazol-2-yl]methyl}benzenesulfonamide] | < 10 |
| COc1cc(C)c(S(=O)(=O)N(C)Cc2nnc(C(=O)NCCc3ccc(C4=NCCN4)cc3)o2)c(C)c1 [Ex 269, N-{2-[4-(4,5-Dihydro-1H-imidazol-2-yl)phenyl]ethyl}-5-({[(4-methoxy-2,6-dimethylphenyl)sulfonyl](methyl)amino}methyl)-1,3,4-oxadiazole-2-carboxamide trifluoroacetate] | < 10 |
| COc1cc(C)c(S(=O)(=O)N(Cc2cc(C(=O)N(C)Cc3ccc(C4=NCCN4)cc3)co2)C2CC2)c(C)c1 [Ex 83, 5-({cyclopropyl[(4-methoxy-2,6-dimethylphenyl)sulfonyl]amino}methyl)-N-[4-(4,5-dihydro-1H-imidazol-2-yl)benzyl]-N-methylfuran-3-carboxamide trifluoroacetate] | 10 to 100 |
| COc1cc(C)c(S(=O)(=O)N(Cc2noc(C(=O)N3CCN(CC4CCCN(C)C4)CC3)n2)C2CC2)c(C)c1 (centres unmarked) [Ex 315, N-Cyclopropyl-4-methoxy-2,6-dimethyl-N-{[5-({4-[(1-methylpiperidin-3-yl)methyl]piperazin-1-yl}carbonyl)-1,2,4-oxadiazol-3-yl]methyl}benzenesulfonamide] | 10 to 100 |
| COc1cc(C)c(S(=O)(=O)N(C)Cc2cc(C(=O)N3CCN(CC4CCCN(C)C4)CC3)co2)c(C)c1 (centres unmarked) [Ex 31, 4-methoxy-N,2,6-trimethyl-N-{[4-({4-[(1-methylpiperidin-3-yl)methyl]piperazin-1-yl}carbonyl)furan-2-yl]methyl}benzenesulfonamide] | 10 to 100 |
| COc1cc(C)c(S(=O)(=O)N(Cc2nc(C(=O)NCc3ccc(CN4CCCC4)cc3)co2)C2CC2)c(C)c1 [Ex 76, 2-({Cyclopropyl[(4-methoxy-2,6-dimethylphenyl)sulfonyl]amino}methyl)-N-[4-(pyrrolidin-1-ylmethyl)benzyl]-1,3-oxazole-4-carboxamide] | < 10 |
| CCN(Cc1cc(C(=O)N(C)Cc2ccc(CN3CCCC3)cc2)co1)S(=O)(=O)c1c(Cl)cccc1Cl [Ex 121, 5-({[(2,6-Dichlorophenyl)sulfonyl](ethyl)amino}methyl)-N-methyl-N-[4-(pyrrolidin-1-ylmethyl)benzyl]furan-3-carboxamide trifluoroacetate] | 100 to 1000 |
| CN(Cc1cc(C(=O)N2CCN(CCc3ccncc3)CC2)co1)S(=O)(=O)c1c(Cl)cccc1Cl [Ex 18, 2,6-dichloro-N-methyl-N-[(4-{[4-(2-pyridin-4-ylethyl)piperazin-1-yl]carbonyl}furan-2-yl)methyl]benzenesulfonamide] | 100 to 1000 |
| COc1cc(C)c(S(=O)(=O)N(C)Cc2nnc(C(=O)N3CCN(CC4CCN(C5CCC5)CC4)CC3)o2)c(C)c1 [Ex 265, N-{[5-({4-[(1-Cyclobutylpiperidin-4-yl)methyl]piperazin-1-yl}carbonyl)-1,3,4-oxadiazol-2-yl]methyl}-4-methoxy-N,2,6-trimethylbenzenesulfonamide trifluoroacetate] | 100 to 1000 |
| COc1cc(C)c(S(=O)(=O)N(Cc2nc(C(=O)N3CCN(CCCCN(C)C)CC3)co2)C2CC2)c(C)c1 [Ex 204, N-Cyclopropyl-N-{[4-({4-[4-(dimethylamino)butyl]piperazin-1-yl}carbonyl)-1,3-oxazol-2-yl]methyl}-4-methoxy-2,6-dimethylbenzenesulfonamide trifluoroacetate] | < 10 |
| CCN1CCN(CCNC(=O)c2coc(CN(C3CC3)S(=O)(=O)c3c(C)cc(OC)cc3C)c2)CC1 [Ex 113, 5-({Cyclopropyl[(4-methoxy-2,6-dimethylphenyl)sulfonyl]amino}methyl)-N-[2-(4-ethylpiperazin-1-yl)ethyl]furan-3-carboxamide trifluoroacetate] | 100 to 1000 |
| COc1cc(C)c(S(=O)(=O)N(Cc2nc(C(=O)N3CC4CCN(Cc5ccc(N6CCCC6)nc5)CC4C3)co2)C2CC2)c(C)c1 (centres unmarked) [Ex 211, N-Cyclopropyl-4-methoxy-2,6-dimethyl-N-{[4-({5-[(6-pyrrolidin-1-ylpyridin-3-yl)methyl]octahydro-2H-pyrrolo[3,4-c]pyridin-2-yl}carbonyl)-1,3-oxazol-2-yl]methyl}benzenesulfonamide trifluoroacetate] | < 10 |
| COc1cc(C)c(S(=O)(=O)N(Cc2cc(C(=O)N(C)Cc3ccc(CN4CCC(OC)C4)cc3)co2)C2CC2)c(C)c1 (centres unmarked) [Ex 145, 5-({Cyclopropyl[(4-methoxy-2,6-dimethylphenyl)sulfonyl]amino}methyl)-N-{4-[(3-methoxypyrrolidin-1-yl)methyl]benzyl}-N-methylfuran-3-carboxamide] | 10 to 100 |
